In US11230526B1, “Cylcoalkenyl derivatives useful as agonists of the GPR120 and/or GPR40 receptors” (Janssen Pharmaceutica NV, priority 2018, dated 2022):

Experiments:
Assay type in all cases: cell-based
Human GPR120 short form = target: T1, Human GPR120 short form (Homo sapiens, UniProt Q5NUL3); test: Human GPR120 calcium flux assay, Procedure Calcium B (4200 cells/well)
T1 construct: expressed in transfected cells
T1 sequence (Q5NUL3 1-361): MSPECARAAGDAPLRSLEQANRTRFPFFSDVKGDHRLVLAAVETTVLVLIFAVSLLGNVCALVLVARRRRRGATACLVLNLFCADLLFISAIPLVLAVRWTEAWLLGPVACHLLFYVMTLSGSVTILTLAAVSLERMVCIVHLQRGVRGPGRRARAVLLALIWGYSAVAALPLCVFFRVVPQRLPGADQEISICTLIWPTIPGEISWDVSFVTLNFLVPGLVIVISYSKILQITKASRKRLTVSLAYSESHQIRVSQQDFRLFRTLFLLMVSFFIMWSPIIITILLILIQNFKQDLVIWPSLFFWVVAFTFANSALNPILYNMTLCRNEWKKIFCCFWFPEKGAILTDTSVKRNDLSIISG
Procedure, shortened: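 HEK293 cells stably expressing human GPR120 (NM_001195755.1), 4200 cells/well, starved 1 h and loaded with Fluo-4 NW plus probenecid. Ligand-evoked calcium flux read on FLIPR for 300 s after a 10 s baseline. RFU = Fmax−Fmin; EC50 from four-parameter concentration-response fit.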

human GPR40 = target: T2, human GPR40 (Homo sapiens, UniProt O14842); test: GPR40 calcium flux assay, human GPR40; settings: HEK293 cells stably expressing GPR40; table does not say human or rat
T2 construct: expressed in transfected cells
Procedure, shortened: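 Cells preincubated 1 h at 37° C. in HBSS, 20 mM HEPES, 0.1% BSA, then Fluo 8 calcium dye 30 min at 37° C. and 15 min at room temperature.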

[1] = target: T3, long form of human GPR120 (Homo sapiens, UniProt Q5NUL3); test: Human GPR120 DiscoveRx PathHunter Beta-Arrestin assay, Procedure β-arrestin A
T3 construct: host or cells: PathHunter CHO-K1 GPR120 β-Arrestin Cell Line
From the text: Human GPR120 DiscoveRx PathHunter® Beta-Arrestin Assay Assay Principle:
The binding of an agonist (medium/long chain fatty acids or small molecule agonists) to the G-protein-coupled receptor GPR120 activates phospholipase C, leading to release of intracellular Ca^+2 through the generation of inositol 1,4,5-trisphosphate (InsP3 or IP3). GPR120 activation can also trigger intracellular signaling via recruitment of Beta-Arrestin. In the present method, agonist-induced activation of the human GPR120 receptor is monitored through the use of PathHunter® CHO-K1 GPR120 Beta-Arrestin Cell Line engineered by DiscoveRx, as detailed below. The cell lines are designed to co-express both the ProLink/Enzyme Donor (PK)-tagged GPCR and the Enzyme […] (EA)-tagged Beta-Arrestin fusion proteins. Upon GPR120 receptor stimulation/activation, the EA-tagged Beta-Arrestin portion is translocated to the tagged receptor, where the two enzyme fragments are brought within close proximity. Under these conditions, these fragments can interact and form an active Beta-gal enzyme complex through Enzyme Fragment Complementation (EFC). This active Beta-gal complex can enzymatically hydrolyse the substrate to produce a detectable light signal; therefore, activation as a function of agonist concentration can be expressed as an EC50 value to determine relative compound activities. This in vitro assay therefore serves to assess compound agonist activity of the GPR120.
In Procedure β-arrestin A, the cell used were PathHunter® CHO-K1 GPR120 β-Arrestin Cell Line, expressing the long form of human GPR120 (Genbank accession number NM_181745), with 3000 cells per well.
The selected CHO-K1 GPR120 β-Arrestin cells were cultured in Ham's F12 media supplemented with 10% fetal bovine serum (FBS), 1% Glutamine, 1×p/s, 800 μg/mL G418 and 300 μg/mL Hygromycin B (for selection). Cell stocks were maintained and grown in a sub-confluent state using standard cell culture procedures. The day before the experiment, the cells were harvested with non-enzymatic cell dissociation buffer and re-suspended in complete growth media at the desired concentration. A Corning 384-plate was then seeded with the proper number of cells in a volume of 25 μL, per well. The seeded plates were incubated overnight at 37° C.
On the day of the experiment, the Assay Buffer containing (a) HBSS with Ca^++ and Mg^++, (b) 20 mM HEPES, and (c) 0.1% BSA stabilizer (pH 7.4) was prepared. The growth medium was gently removed from the cell plates and 20 μL of Assay Buffer added to each well. The plate was then incubated at 37° C. for 60 min. Test compounds were serially diluted in Assay Buffer to desired concentrations (more particularly to one or more of the following μM concentrations: 25, 12.5, 6.25, 3.12, 1.56, 0.78, 0.39, 0.19, 0.10, 0.05, 0.02, 0.01). Five μL of compound dilution was then added to each well and the plate incubated at 37° C. for 90 min. The detection reagents were prepared according to the manufacture's instruction. Twelve μL of the detection reagents were added to each well and the plate incubated at room temperature for 60 min.
The plates were read on an EnVision instrument, using Protocol name: Luminescence, Plate type: 384 Costar, Measurement height: 3 mm, Measurement time: 1 s, Aperture: 384 Plate aperture. The % Activity relative to the positive control was calculated using the following equation:
The % Activity values were plotted versus the concentration of test compound and fitted to a sigmoidal dose-response curve with a Hill slope=1 (fixed value) using nonlinear regression with GraphPad Prism 5.0 to calculate the EC50 values. The Fitting Equation was: Y=Bottom+(Top-Bottom)/(1+10^((Log EC50−X)*HillSlope)), where X is the log of the concentration and Y is the response.

T3 sequence (Q5NUL3 1-377 isoform Q5NUL3-1): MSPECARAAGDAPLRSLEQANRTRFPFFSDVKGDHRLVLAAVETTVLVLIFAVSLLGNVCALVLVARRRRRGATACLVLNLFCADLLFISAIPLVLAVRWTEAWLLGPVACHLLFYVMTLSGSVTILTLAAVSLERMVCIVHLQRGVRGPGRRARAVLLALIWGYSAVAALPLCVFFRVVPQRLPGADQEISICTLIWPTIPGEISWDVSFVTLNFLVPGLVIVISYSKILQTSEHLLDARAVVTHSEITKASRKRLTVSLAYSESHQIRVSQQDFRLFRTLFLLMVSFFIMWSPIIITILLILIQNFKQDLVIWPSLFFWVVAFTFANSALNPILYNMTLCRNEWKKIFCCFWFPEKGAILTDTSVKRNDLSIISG
T3 sequence (P32121 whole entry partner): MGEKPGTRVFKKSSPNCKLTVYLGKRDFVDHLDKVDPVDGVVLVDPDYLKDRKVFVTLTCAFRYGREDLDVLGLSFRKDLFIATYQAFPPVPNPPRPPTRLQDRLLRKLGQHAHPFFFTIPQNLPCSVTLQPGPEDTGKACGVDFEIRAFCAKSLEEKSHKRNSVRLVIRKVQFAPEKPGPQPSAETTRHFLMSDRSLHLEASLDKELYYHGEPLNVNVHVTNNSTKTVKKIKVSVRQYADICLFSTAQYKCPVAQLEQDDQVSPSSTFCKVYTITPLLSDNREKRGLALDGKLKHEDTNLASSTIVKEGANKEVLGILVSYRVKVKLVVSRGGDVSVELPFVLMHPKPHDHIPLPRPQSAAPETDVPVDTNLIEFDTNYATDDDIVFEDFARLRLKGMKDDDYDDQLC
T2 sequence (O14842 whole entry): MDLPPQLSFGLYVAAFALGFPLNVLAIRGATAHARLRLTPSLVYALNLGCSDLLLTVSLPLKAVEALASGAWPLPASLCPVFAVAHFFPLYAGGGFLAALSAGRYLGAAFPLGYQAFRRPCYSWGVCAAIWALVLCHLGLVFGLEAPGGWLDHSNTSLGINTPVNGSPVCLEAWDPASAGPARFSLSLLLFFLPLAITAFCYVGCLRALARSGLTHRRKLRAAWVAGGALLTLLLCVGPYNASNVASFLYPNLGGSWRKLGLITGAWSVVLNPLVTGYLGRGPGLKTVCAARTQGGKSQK

| Compound | EC50 (Human GPR120 short form) | EC50 (human GPR40) | EC50 [1] |
| --- | --- | --- | --- |
| COC1CC(COc2c(F)cc(CCC(=O)O)cc2F)=C(c2ccc(Cl)cc2)C1 (stereo not drawn) [Compound 187, 3-[4-[[2-(4-chlorophenyl)-4-methoxy-cyclopenten-1-yl]methoxy]-3,5-difluoro-phenyl]Propanoic Acid] | 137 nM | 3320 nM | 596 nM |
| Cc1cc(OCC2=C(c3ccc(F)cc3)CCC(F)(F)C2)ccc1CCC(=O)O [Compound 518, 3-[4-[[5,5-difluoro-2-(4-fluorophenyl)cyclohexen-1-yl]methoxy]-2-methyl-phenyl]Propanoic Acid] | 255 nM | 3750 nM | 639 nM |
| Cc1cc(CCC(=O)O)ccc1OCC1=C(c2ccccc2)CC(F)(F)C1 [Compound 193, 3-[4-[(4,4-difluoro-2-phenyl-cyclopenten-1-yl)methoxy]-3-methyl-phenyl]Propanoic Acid] | 30 nM | > 5000 nM | 133 nM |
| COc1ncc(C2=C(COc3ccc(CCC(=O)O)cc3C)CCC2)cc1F [Compound 222, 3-[4-[[2-(5-fluoro-6-methoxy-3-pyridyl)cyclopenten-1-yl]methoxy]-3-methyl-phenyl]Propanoic Acid] | 57 nM | > 5000 nM | 132 nM |
| Cc1cc(OCC2=C(c3ccc(Cl)cc3)CCC2)c(Br)cc1CCC(=O)O [Compound 67] | 73 nM | > 5000 nM | 167 nM |
| O=C(O)CCc1ccc(OCC2=C(c3ccc(F)cc3)CCC(F)(F)C2)cc1 [Compound 499, 3-[4-[[5,5-difluoro-2-(4-fluorophenyl)cyclohexen-1-yl]methoxy]phenyl]Propanoic Acid] | 215 nM | > 5000 nM | 132 nM |
| N#CC1CC(COc2c(F)cc(CCC(=O)O)cc2F)=C(c2ccc(Cl)cc2)C1 (stereo not drawn) [Compound 185, 3-[4-[[2-(4-chlorophenyl)-4-cyano-cyclopenten-1-yl]methoxy]-3,5-difluoro-phenyl]Propanoic Acid] | 360 nM | 3440 nM | 1440 nM |
| Cc1cc(CCC(=O)O)ccc1OCC1=C(c2ccc(F)cc2)CCC1 [Compound 42] | 61 nM | > 5000 nM | 340 nM |
| Cc1c(CCC(=O)O)ccc(OCC2=C(c3ccc(F)cc3)CC(F)C2)c1C (stereo not drawn) [Compound 100] | 81 nM | > 5000 nM | 168 nM |
| Cc1cc(CCC(=O)O)ccc1OCC1=C(c2ccc(F)cc2)CC(F)(F)C1 [Compound 180, 3-[4-[[4,4-difluoro-2-(4-fluorophenyl)cyclopenten-1-yl]methoxy]-3-methyl-phenyl]Propanoic Acid] | 26 nM | > 5000 nM | 78 nM |
| Cc1c(CCC(=O)O)ccc(OCC2=C(c3ccc(F)cc3)CC(F)(F)C2)c1C [Compound 10] | 24 nM | > 5000 nM | 155 nM |
| Cc1cc(CCC(=O)O)ccc1OCC1=C(c2ccc(F)c(F)c2)CC(F)(F)C1 [Compound 179, 3-[4-[[2-(3,4-difluorophenyl)-4,4-difluoro-cyclopenten-1-yl]methoxy]-3-methyl-phenyl]Propanoic Acid] | 31 nM | > 5000 nM | 289 nM |
| Cc1ncc(C2=C(COc3ccc(CCC(=O)O)cc3C)CC(F)(F)C2)s1 [Compound 199, 3-[4-[[4,4-difluoro-2-(2-methylthiazol-5-yl)cyclopenten-1-yl]methoxy]-3-methyl-phenyl]Propanoic Acid] | 210 nM | 1470 nM | 369 nM |
| O=C(O)CCc1ccc(OCC2=C(c3ccc(F)cc3)CC(F)C2)cc1C(F)(F)F (stereo not drawn) [Compound 186, 3-[4-[[4-fluoro-2-(4-fluorophenyl)cyclopenten-1-yl]methoxy]-2-(trifluoromethyl)phenyl]Propanoic Acid] | 453 nM | 382 nM | 1790 nM |
| O=C(O)CCc1cc(F)c(OCC2=C(c3ccc(F)cc3F)CC(F)(F)C2)c(F)c1 [Compound 216, 3-[4-[[2-(2,4-difluorophenyl)-4,4-difluoro-cyclopenten-1-yl]methoxy]-3,5-difluoro-phenyl]Propanoic Acid] | 75 nM | > 5000 nM | 169 nM |

Continued, values first:

| EC50 (Human GPR120 short form) | EC50 (human GPR40) | EC50 [1] | Compound |
| --- | --- | --- | --- |
| 641 nM | > 5000 nM | 1010 nM | N#Cc1ccc(C2=C(COc3c(F)cc(CCC(=O)O)cc3F)CC(F)(F)CC2)s1 [Compound 572, 3-[4-[[2-(5-cyano-2-thienyl)-5,5-difluoro-cyclohexen-1-yl]methoxy]-3,5-difluoro-phenyl]Propanoic Acid] |
| 133 nM | > 5000 nM | 187 nM | Cc1cc(CCC(=O)O)ccc1OCC1=C(c2ccc(F)c(F)c2)CCC(F)(F)C1 [Compound 532, 3-[4-[[2-(3,4-difluorophenyl)-5,5-difluoro-cyclohexen-1-yl]methoxy]-3-methyl-phenyl]Propanoic Acid] |
| 120 nM | > 5000 nM | 108 nM | Cc1cc(CCC(=O)O)ccc1OCC1=C(c2ccc(F)cc2F)CCC(F)(F)C1 [Compound 535, 3-[4-[[2-(2,4-difluorophenyl)-5,5-difluoro-cyclohexen-1-yl]methoxy]-3-methyl-phenyl]Propanoic Acid] |
| 165 nM | 4030 nM | 121 nM | Cc1ccc(C2=C(COc3c(F)cc(CCC(=O)O)cc3F)CC(F)(F)CC2)cc1F [Compound 525, 3-[4-[[5,5-difluoro-2-(3-fluoro-4-methyl-phenyl)cyclohexen-1-yl]methoxy]-3,5-difluoro-phenyl]Propanoic Acid] |
| 96 nM | > 5000 nM | 157 nM | Cc1c(CCC(=O)O)ccc(OCC2=C(c3ccc(F)cc3F)CCC(F)(F)C2)c1C [Compound 534, 3-[4-[[2-(2,4-difluorophenyl)-5,5-difluoro-cyclohexen-1-yl]methoxy]-2,3-dimethyl-phenyl]Propanoic Acid] |
| 68 nM | > 5000 nM | 73 nM | Cc1ccc(C2=C(COc3ccc(CCC(=O)O)cc3C)CC(F)(F)CC2)cc1F [Compound 530, 3-[4-[[5,5-difluoro-2-(3-fluoro-4-methyl-phenyl)cyclohexen-1-yl]methoxy]-3-methyl-phenyl]Propanoic Acid] |
| 94 nM | 2860 nM | 182 nM | Cc1cc(CCC(=O)O)ccc1OCC1=C(c2ccc(Cl)s2)CCC(F)(F)C1 [Compound 542, 3-[4-[[2-(5-chloro-2-thienyl)-5,5-difluoro-cyclohexen-1-yl]methoxy]-3-methyl-phenyl]Propanoic Acid] |
